In US20210254056A1, “IDENTIFICATION AND TARGETED MODULATION OF GENE SIGNALING NETWORKS” (CAMP4 THERAPEUTICS CORPORATION, priority 2017, published 2021):

Legend:
hepatocytes [1] = test system: hepatocytes
hepatocytes [2] = test system: hepatocytes; remark: listed apart in the source
hepatocytes [3] = assay: qRT-PCR validation of the Example 12 RNA-seq results;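 also: Compound-treated versus DMSO control, target Ct normalized to GAPDH or β-actin reference (ΔΔCt method), positive values mean higher expression than DMSO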
hepatocytes [4] = assay: RNA-seq of hepatocytes stimulated with the compounds of Table 68; details: hepatocytes, RNA-seq
[5] = test system: primary human hepatocytes; assay: RNA-seq of primary human hepatocytes treated with 39 small molecules (pilot and validation); details: pilot RNA-seq study of Example 2; significance: FPKM≥0.5, log 2(fold change)≥1, q-value ≤0.05

CO[C@H]1/C=C/O[C@@]2(C)Oc3c(C)c(O)c4c(O)c(c(/C=N/N5CCN(C)CC5)c(O)c4c3C2=O)NC(=O)/C(C)=C\C=C\[C@H](C)[C@H](O)[C@@H](C)[C@@H](O)[C@@H](C)[C@H](OC(C)=O)[C@@H]1C [MT-901, Rifampicin]
DESeq log2fc, CYP7A1 (hepatocytes [1]): −1.44
qRT-PCR log2fc, CYP2C19 (hepatocytes [2]): −0.37
qRT-PCR log2fc, AGTR1 (hepatocytes [3]; log 2 fold change in AGTR1 gene expression): −0.37
qRT-PCR log2fc, ALAS1 (hepatocytes [3]; log 2 fold change in ALAS1 gene expression): 0.3
qRT-PCR log2fc, CA12 (hepatocytes [3]; log 2 fold change in CA12 gene expression): 0.53
qRT-PCR log2fc, ENO3 (hepatocytes [3]; log 2 fold change in ENO3 gene expression): −0.06
qRT-PCR log2fc, POR (hepatocytes [3]; log 2 fold change in POR gene expression): 0.16
qRT-PCR log2fc, SLC6A6 (hepatocytes [3]; log 2 fold change in SLC6A6 gene expression): −0.14
qRT-PCR log2fc, SLC6A20 (hepatocytes [3]; log 2 fold change in SLC6A20 gene expression): −0.17
qRT-PCR log2fc, SLC51B (hepatocytes [3]; log 2 fold change in SLC51B gene expression): 1.72
qRT-PCR log2fc, VLDLR (hepatocytes [3]; log 2 fold change in VLDLR gene expression): 0.63
Cuffdiff log2fc, AGTR1 (hepatocytes [4]; log 2 fold change in AGTR1 gene expression, Cuffdiff): 1.1
DESeq log2fc, AGTR1 (hepatocytes [4]; log 2 fold change in AGTR1 gene expression, DESeq): 1.18
Cuffdiff log2fc, ALAS1 (hepatocytes [4]; log 2 fold change in ALAS1 gene expression, Cuffdiff): 1.45
DESeq log2fc, ALAS1 (hepatocytes [4]; log 2 fold change in ALAS1 gene expression, DESeq): 1.47
Cuffdiff log2fc, CA12 (hepatocytes [4]; log 2 fold change in CA12 gene expression, Cuffdiff): 1.53
DESeq log2fc, CA12 (hepatocytes [4]; log 2 fold change in CA12 gene expression, DESeq): 1.56
DESeq log2fc, CYP2C19 (hepatocytes [4]; log 2 fold change in CYP2C19 gene expression, DESeq): 2.3
Cuffdiff log2fc, ENO3 (hepatocytes [4]; log 2 fold change in ENO3 gene expression, Cuffdiff): −1.13
DESeq log2fc, ENO3 (hepatocytes [4]; log 2 fold change in ENO3 gene expression, DESeq): −0.97
Cuffdiff log2fc, POR (hepatocytes [4]; log 2 fold change in POR gene expression, Cuffdiff): 1.13
DESeq log2fc, POR (hepatocytes [4]; log 2 fold change in POR gene expression, DESeq): 1.17
Cuffdiff log2fc, SLC6A6 (hepatocytes [4]; log 2 fold change in SLC6A6 gene expression, Cuffdiff): 1.28
DESeq log2fc, SLC6A6 (hepatocytes [4]; log 2 fold change in SLC6A6 gene expression, DESeq): 1.39
Cuffdiff log2fc, SLC6A20 (hepatocytes [4]; log 2 fold change in SLC6A20 gene expression, Cuffdiff): 1.03
DESeq log2fc, SLC6A20 (hepatocytes [4]; log 2 fold change in SLC6A20 gene expression, DESeq): 1.06
Cuffdiff log2fc, SLC51B (hepatocytes [4]; log 2 fold change in SLC51B gene expression, Cuffdiff): 1.02
DESeq log2fc, SLC51B (hepatocytes [4]; log 2 fold change in SLC51B gene expression, DESeq): 1.19
Cuffdiff log2fc, VLDLR (hepatocytes [4]; log 2 fold change in VLDLR gene expression, Cuffdiff): 1.69
DESeq log2fc, VLDLR (hepatocytes [4]; log 2 fold change in VLDLR gene expression, DESeq): 1.71
Number (#) of genes having significantly changed expression [5]: 90
